pEC50, pIC50: −log10 of the molar value. Each block holds one compound with its values, some of them ahead of it.
Tests used:
[1] = tested on: MCF-7 cells; assay: ELICA of mitotic cells (Enzyme-Linked Immuno-Cytochemical assay, TG-3 antibody); format: cell-based, human
Procedure: (§1) Cell Culture and Treatment. Human breast carcinoma MCF-7 cells were cultured as monolayers. The cells were seeded at 10,000 per well of 96-well polystyrene tissue culture plates (Falcon) in 200 μl medium and were allowed to grow overnight. Crude extracts of marine organisms were then added at about 10 μg/ml or 1 μg/ml, from 1000-fold stocks in dimethylsulfoxide (DMSO). Untreated samples received an equivalent amount of DMSO and several as negative controls. Cells treated with 100 ng/ml nocodazole (Sigma), from a 1000-fold stock in DMSO, served as positive controls. Cells were incubated for 16-20 hours. The relative number of cells in mitosis was then determined by microscopy, by enzyme-linked immunosorbent assay (ELISA) or by an enzyme-linked cytochemical assay (ELICA), as described below.
ELICA of Miltotic Cells. While the ELISA is accurate and reliable, it requires transferring cell lysates to ELISA plates and many solution changes. The assay of this invention is faster and easier to use for drug screening. […] In a preferred assay of this invention, cells are fixed with formaldehyde in their microtiter culture plates and permeabilized with methanol and detergents. The TG-3 primary antibody and HRP-conjugated secondary antibody may be added sequentially but are preferably added simultaneously. Colorimetric detection of HRP activity remains unchanged. This new assay is termed: an Enzyme-Linked Immuno-Cytochemical assay (ELICA).
After incubation with marine extracts, the medium was withdrawn carefully using a pipetor and 100 μl of 10 mM Tris-HCl (pH 7.4) 150 mM NaCl, containing 3.7% formaldehyde was added to fix the cells for 30 minutes at 4° C. The fixative was removed and replaced with 100 μl of cold (−20° C.) methanol for 5 minutes to permeabilize the fixed cells. The methanol was removed and the wells were rinsed briefly with 200 μl antibody buffer. Then, 100 μl antibody buffer containing 0.1-0.15 μg/ml TG-3 monoclonal antibody and HRP-conjugated goat anti-mouse IgM secondary antibody at a 50-fold dilution, was added to 16-20 hours at 4° C. The plates were washed twice with 200 μl 10 mM Tris-HCl pH 7.4, 0.02% Tween 20™. Then, 100 μl of 120 mM Na2HPO4, 100 mM citric acid (pH 4.0) containing […] 2,2′-azino-bis(-3ethylbenz-thiazoline-6-sulfonic acid) and 0.01% hydrogen peroxide was added for 1 hour at room temperature and the absorbance at 405 nm was measured.

[2] = tested on: MCF-7 cells; assay: Mitotic arrest of MCF-7 cells, counting mitotic cells by microscopy (mitotic spreads); format: cell-based, human
Procedure: as §1
Screens for Antimitotic Agents. MCF-7 cells were incubated for 20 hours with different concentrations of the antimitotic drug paclitaxel, and the proportion of cells arrested in mitosis was measured by counting mitotic cells in the microscope, and by ELISA. Paclitaxel induced mitotic arrest in a concentration-dependent manner with half-maximal activity at 10 nM measured by microscopy (FIG. 1A) and at 4 nM measured by ELISA (FIG. 1B, □)
Further comparison of the antimitotic activities of eleutherobin and desmethyleleutherobin was done using microscopic examination of a standard cell spread.

[3] = tested on: SCCVII squamous cell carcinoma; assay: In vivo antimitotic/anticancer activity, tumor cell survival by colony formation; parameters: species or system C3H mice
Procedure: In Vivo Antimitotic/Anticancer Activity. C3H mice of approximately 26 g bearing SCCVII squamous cell carcinoma (tumor size approximately 0.45 g) were injected intraperitoneally with desmethyleleutherobin. 24 hours later, the mice were intravenously injected with Hoechst 33342™ and then sacrificed. The tumors were removed and single cell suspensions prepared and sorted on the basis of a concentration gradient of Hoechst 33342™, to provide cells sorted according to varying distance from the blood supply. The cells were plated and survival analyzed by observing colony formation.

[4] = tested on: MCF-7 cells; assay: Western blot with TG-3 antibody, densitometric scanning of the 105-kDa band; format: cell-based, human; settings: cells treated for 20 hours with nocodazole vs cycling MCF-7 cells
Procedure: The TG-3 monoclonal antibody, originally described as a marker of Alzheimer's disease, is highly specific for mitotic cells. […] In Western blots, the antibody reacts with a 105-kDa protein identified as a mitotically phosphorylated form of nucleolin, that is present in abundance in extracts of cells treated for 20 hours with the antimitotic agent nocodazole but present at only low levels in extracts from cycling MCF-7 cells. Densitometric scanning of the bands on Western blots in these examples show a 27-fold difference in intensity between nocodazole-treated and untreated cells, corresponding well to the difference in the number of mitotic cells in the two samples: 80% for the nocodazole-treated sample and 3% for the untreated sample, as measured by microscopy.

[5] = tested on: MCF-7 cells; assay: ELISA of mitotic cells (TG-3 antibody); format: cell-based, human
Procedure: TG-3 also recognizes mitotic cells in EUISA. In the ELISA assay, the cells may be grown in multi-well plates, lysed and transferred to protein-binding ELISA plates for adsorption to the plastic surface. The antigen may be detected by incubating with TG-3 antibody, an HRP-conjugated secondary antibody and performing a calorimetric determination of HRP activity.
as §1, with “Cells treated with 100 ng/ml nocodazole (Sigma), from a 1000-fold stock in DMSO, served as positive controls. Cells were incubated for 16-20 hours.” left out
ELISA of Mitotic Cells. […] Finally, 100 μl of 120 mM Na2HPO4, 100 mM citric acid (pH 4.0) containing 0.5 μg/ml 2,2′-azino-bis (3-ethyl-benzthiazoline-6-sulfonic acid) and 0.01% hydrogen peroxide was added for 1 hour at room temperature and absorbance at 405 nm was determined using a Dynex MRX™ plate reader.

[6] = MCF-7 cells, FIG. 2, read-out: IC50, antimitotic activity as determined by ELICA

Compound: COC(=O)/C1=C/[C@@H]2[C@@H](C(C)C)CC=C(C)[C@@H]2C[C@H](OC(=O)/C=C/c2cn(C)cn2)[C@]2(C)C=C[C@@]1(O)O2 [Sarcodictyin A, sarcodictyin A]
pIC50 [1, 6]: ~5.70

Compound: CO[C@]12C=C[C@](C)(O1)[C@@H](OC(=O)/C=C\c1cn(C)cn1)C[C@H]1C(C)=CC[C@H](C(C)C)[C@H]1/C=C\2CO[C@@H]1OC[C@@H](O)[C@@H](O)[C@@H]1OC(C)=O [Z-eleutherobin]
pIC50 [1, 6]: ~6.60

Compound: CO[C@]12C=C[C@](C)(O1)[C@@H](OC(=O)/C=C/c1cn(C)cn1)C[C@@H]1[C@H](/C=C\2CO[C@@H]2OC[C@@H](O)[C@@H](O)[C@@H]2OC(C)=O)[C@@H](C(C)C)C=C[C@@]1(C)O [caribaeoside]
pIC50 [1, 6]: ~4.70

Compound: CC(=O)O[C@@H]1[C@H](OC/C2=C/[C@@H]3[C@@H](C(C)C)CC=C(C)[C@@H]3C[C@H](OC(=O)/C=C/c3cn(C)cn3)[C@]3(C)C=C[C@@]2(O)O3)OC[C@@H](O)[C@H]1O [desmethyleleutherobin]
pIC50 ([2]; MCF-7 cells, FIG. 4, read-out: IC50, antimitotic activity by microscopic examination of a standard cell spread): ~7.60 | pIC50 [1, 6]: ~7.70 | overt toxicity to the mice ([3]; intraperitoneal injection, C3H mice bearing SCCVII tumor): no overt toxicity | tumor cells killed ([3]; intraperitoneal, doses of about 100 μg or more per mouse, 24 hours, FIG. 5): about 90%

Compound: CO[C@]12C=C[C@](C)(O1)[C@@H](OC(=O)/C=C/c1cn(C)cn1)C[C@H]1C(C)=CC[C@H](C(C)C)[C@H]1/C=C\2COC1OCC(O)C(O)C1OC(C)=O (stereo partly drawn) [eleutherobin]
pIC50 ([2]; Homo sapiens, MCF7, read-out: IC50, antimitotic activity by microscopic examination of a standard cell spread): ~6.70 | pIC50 ([1]; Homo sapiens, MCF7, read-out: IC50, antimitotic activity as determined by ELICA): ~7.00

Compound: CO[C@]12C=C[C@](C)(O1)[C@@H](OC(=O)/C=C/c1cn(C)cn1)C[C@H]1C(C)=CC[C@H](C(C)C)[C@H]1/C=C\2CO[C@@H]1OC[C@@H](O)[C@@H](OC(C)=O)[C@@H]1O [isoeleutherobin A]
pIC50 [1, 6]: ~7.30

Compound: COC(=O)Nc1nc2ccc(C(=O)c3cccs3)cc2[nH]1 [nocodazole]
number of mitotic cells as measured by microscopy ([2]; cells treated for 20 hours with nocodazole, untreated sample 3%): 80% | difference in band intensity between treated and untreated cells (TG-3 Western blot) [4]: 27 fold

pEC50 ([2]; Homo sapiens, MCF7, MCF-7 cells, 20 hours incubation, FIG. 1A, read-out: half-maximal activity, mitotic arrest measured by microscopy): 8.00 | pEC50 ([5]; Homo sapiens, MCF7, 20 hours incubation, FIG. 1B, read-out: half-maximal activity, mitotic arrest measured by ELISA): 8.40 | pEC50 ([1]; Homo sapiens, MCF7, MCF-7 cells, FIG. 1B, read-out: half-maximal activity, mitotic arrest detected by ELICA): 8.82
Compound: CC(=O)O[C@H]1C(=O)[C@@]2(C)[C@H]([C@H](OC(=O)c3ccccc3)[C@]3(O)C[C@H](OC(=O)[C@H](O)[C@@H](NC(=O)c4ccccc4)c4ccccc4)C(C)=C1C3(C)C)[C@]1(OC(C)=O)CO[C@@H]1C[C@@H]2O [paclitaxel]

Compound: WF-1360 [Compound A]
pIC50 ([5]; read-out: half-maximal antimitotic activity (IC50) as determined by ELISA): 7.28

Compound: caribaeolin
pIC50 [1, 6]: ~4.70

Compound: desacetyleleutherobin
pIC50 [1, 6]: ~6.40

From patent publication US6812037B1, “Antimitotic compounds” (The University of British Columbia, priority 1999, dated 2004)
